Earlier results, collected in Sander's compilation of Henry's law constants (doi:10.1039/f19888401985).

Experiment: Henry solubility constant Hcp at 298.15 K (mol/(m3 Pa))
Conditions: reference: Abraham and Matteoli (1988); cited value

SMILES | Henry solubility constant Hcp
CCCCCC [hexane] | 6.1e-06
CCCC [butane] | 1.3e-05
[Ar] [argon] | 1.4e-05
[He] [helium] | 3.8e-06
CCCCCCC [heptane] | 4.4e-06

Second part, the compound after the results:

Henry solubility constant Hcp | SMILES
3.1e-06 | CCCCCCCC [octane]
4.4e-06 | [Ne] [neon]
9.1e-05 | [Rn] [radon]
8e-06 | CCCCC [pentane]
2.5e-05 | [Kr] [krypton]
4.3e-05 | [Xe] [xenon]
